Tests used:
[1] = system: T98G (glioblastoma); assay: MTT cytotoxicity assay on T98G cells; type: cell-based
Description: (§1) Cytotoxic activity of the investigated compounds was evaluated against T98G (glioblastoma), HepG2 (hepatoma), LS-180 (colon cancer) and A375 (melanoma) cell lines. Human normal skin fibroblasts, CCD-1059Sk (CRL-2072), were used as reference (non-cancerous) cells. All of the cell lines were obtained from American Type Culture Collection (ATCC; Manassas, VA, USA). A375, T98G and CCD-1059Sk cells were cultured in Dulbecco’s Modified Eagle’s Medium (DMEM) (Sigma Aldrich, St. Louis, MO, USA) supplemented with 10% FBS, penicillin (100 U/mL) and streptomycin (100 μg/mL). LS-180 and HepG2 cells were cultured in Eagle’s Minimum Essential Medium supplemented with 10% FBS, penicillin (100 U/mL) and streptomycin (100 μg/mL). All of the cells were maintained at 37 °C in a humidified atmosphere of 5% CO2. The compounds were dissolved in DMSO in order to obtain stock solutions. At the day of the experiment, the suspension of cells (1 × 10^5 cells/mL) was distributed onto 96-well plates at a volume of 100 μL/well. After attachment, the cells were treated with the increased concentrations of the tested compounds in medium containing 2% FBS and incubated for 24 h. Then, the medium was removed from wells, and cells were rinsed with PBS. Afterwards, 15 μL of MTT working solution (5 mg/mL in PBS) was added to each well, and the plates were incubated for 3 h. Subsequently, 100 μL of 10% SDS solution was added to each well in order to dissolve the precipitated formazan crystals. After overnight incubation at 37 °C, the absorbance of the obtained solution was measured at λ = 570 nm using a microplate reader (Epoch, BioTek Instruments, Inc., Winooski, VT, USA). At least two independent experiments were performed in triplicate. […] IC50 values of the investigated derivatives and positive control (etoposide) were calculated using the IC50 online calculator [101].

[2] = system: A375, HepG2, LS-180, T98G and CCD-1059Sk cell lines; assay: MTT cytotoxicity assay, summary statements over several cell lines; type: cell-based; conditions: range over HepG2 and T98G
Description: as §1

[3] = system: LS-180 (colon cancer); assay: MTT cytotoxicity assay on LS-180 cells; type: cell-based, human; conditions: 24 h incubation
Description: as §1

[4] = system: HepG2 cells; assay: Cell cycle analysis (image cytometry, DAPI) in HepG2; type: cell-based, human; conditions: C2 at IC50 concentration
Description: (§2) Cell cycle analysis of T98G and HepG2 cells pretreated with copper(II) complex C2 (CX) (at IC50 concentration) was performed on NucleoCounter NC-3000 Image Cytometer (ChemoMetec, Lillerod, Denmark). The investigated cells were seeded on 6-well culture plates (Corning Inc., New York, NY, USA) at the density of 1 × 10^5 cells/mL and cultured in the respective medium at 37 °C in a humidified atmosphere of 5% CO2. When the cells reached approximately 80% confluence, they were treated with C2 (CX), at a concentration of IC50, for 24 h. Subsequently, the cells were detached with trypsine, suspended in 250 μL of lysis buffer (Solution 10) supplemented with DAPI (10 μg/mL) and incubated for 5 min at 37 °C. Following this, stabilization buffer (Solution 11) was added, and the obtained cell suspension was applied on NC-slide and analyzed using NucleoCounter NC-3000 Image Cytometer equipped with NucleoView NC-3000^TM software (ChemoMetec A/S, Lillerod, Denmark). Experiments were repeated three times, and the measurements in each experiment were run in duplicate.

[5] = system: T98G cells; assay: Cell cycle analysis (image cytometry, DAPI) in T98G; type: cell-based, human; conditions: 24 h, C2 at IC50 concentration
Description: as §2

[6] = system: Candida albicans ATCC 102231; assay: Two-fold microdilution broth method, MIC; type: cell-based; conditions: 35 °C, 24 h
From the text: (§3) Antibacterial and antifungal activities of the free ligands L2, L3 and L4 and the corresponding copper(II) complexes C2, C3 and C4 were screened using the two-fold microdilution broth method. Minimal inhibitory concentrations (MICs) of tested compounds for the panel of reference Gram-positive bacteria, including Staphylococcus aureus ATCC 25923, Staphylococcus aureus ATCC BAA-1707, Staphylococcus epidermidis ATCC 12228, Micrococcus luteus ATCC 10240 and Bacillus cereus ATCC 10876; Gram-negative bacteria, including Salmonella Typhimurium ATCC 14028, Escherichia coli ATCC 25922, Proteus mirabilis ATCC 12453, Klebsiella pneumoniae ATCC 13883 and Pseudomonas aeruginosa ATCC 9027; and yeasts, including Candida albicans ATCC 102231, Candida parapsilosis ATCC 22019 and Candida glabrata ATCC 90030 were determined. The procedure has been described in detail before. Briefly, the solutions of tested compounds dissolved in dimethylosulfoxide (DMSO) were suspended in Mueller–Hinton broth for bacteria or Mueller–Hinton broth with 2% glucose for fungi. Then, the series of two-fold dilutions were carried out in the sterile Nunc™ MicroWell™ 96-Well Microplates (ThermoFisher Scientific Inc.), obtaining concentrations from 1000 to 7.8 mg/L in the appropriate medium. Simultaneously, the inocula of 24 h cultures of microorganisms in sterile physiological saline (0.5 McFarland standard density) were prepared and added to each well, obtaining final density of 5 × 10^5 CFU/mL for bacteria and 5 × 10^4 CFU/mL for yeasts. Proper positive (inoculum without tested compound) and negative (compound without inoculum) controls were added in each microplate. After incubation (35 °C, 24 h), the growth of microorganisms was measured spectrophotometrically at 600 nm (BioTEK ELx808, Bio-Tek Instruments, Inc., Winooski, VT, USA). MICs were marked at the lowest concentration of the compound without the growth of bacteria or fungi.

[7] = system: Candida glabrata ATCC 90030; assay: Two-fold microdilution broth method, MIC; type: cell-based; conditions: 35 °C, 24 h
From the text: as §3

[8] = system: Candida parapsilosis ATCC 22019; assay: Two-fold microdilution broth method, MIC; type: cell-based; conditions: 35 °C, 24 h
From the text: as §3

[9] = system: HepG2 (hepatoma); assay: MTT cytotoxicity assay on HepG2 cells; type: cell-based, human
Description: as §1

[10] = system: A375 (melanoma); assay: MTT cytotoxicity assay on A375 cells; type: cell-based, human; conditions: 24 h incubation
Description: as §1

O=C1NCCN1c1cc2ccccc2cn1.O=C1NCCN1c1cc2ccccc2cn1.[Cl][Cu][Cl] [C2, Dichloro{bis[1-(Isoquinolin-3-yl)imidazolidin-2-one]}copper(II)]
highest concentration that did not affect the viability of T98G cells ([1]; MTT assay): 0.25 µg/mL
IC50 ± SD, T98G ([1]; MTT, 24 h incubation): 6.97 ± 0.52 µg/mL
selectivity index (SI), T98G ([1]; T98G compared with CCD-1059-Sk): 3.14
IC50, HepG2 and T98G [2]: 5.04 to 6.97 µg/mL
IC50 ± SD, LS180 [3]: 5.88 ± 0.40 µg/mL
effect on cell cycle progression, HepG2 ([4]; 24 h): cell cycle arrest in the sub-G1 phase
DNA content in the sub-G1 phase ([4]; HepG2, 24 h, control cells 10%, p < 0.0001): 29%
effect on cell cycle progression, T98G [5]: cell cycle arrest in the G2/M phase
MIC, C. albicans ATCC 102231 [6]: 1000 mg/L
MIC, C. glabrata ATCC 90030 [7]: >1000 mg/L
MIC, C. parapsilosis ATCC 22019 [8]: 1000 mg/L
selectivity index (SI), HepG2 ([9]; HepG2 compared with CCD-1059-Sk): 4.33
highest concentration that did not affect the viability of HepG2 cells ([9]; MTT assay): 0.25 µg/mL
IC50 ± SD, HepG2 ([9]; MTT, 24 h incubation): 5.04 ± 0.42 µg/mL
IC50 ± SD, A375 [10]: 28.91 ± 1.79 µg/mL
